Legend:
OTUB1 [1] = target: T1, OTUB1 (Homo sapiens, UniProt Q96FW1); assay: Gel-based ABPP: competition against IA-rhodamine labeling of OTUB1; format: binding; conditions: pre-incubated with OTUB1 30 min at 37° C.; IA-rhodamine 500 nM, 30 min room temperature; in-gel fluorescence; n=3
Method: Vehicle (DMSO) or an exemplary DUB Recruiter (Compound 100) were pre-incubated with OTUB1 for 30 min at 37° C. prior to IA-rhodamine labeling (500 nM, 30 min room temperature). OTUB1 was then separated by SDS/PAGE and in-gel fluorescence was assessed. Protein loading is illustrated by silver staining. The gel shown is representative gel of n=3 biologically independent samples/group.
Recombinant OTUB1 ([…]) was pre-treated with either DMSO vehicle or covalent ligand or bifunctional compounds at 37° C. for 30 min in 25 μL of PBS, and subsequently treated with of IA-Rhodamine (Setareh Biotech) at room temperature for 1 h. The reaction was stopped by addition of 4× reducing Laemmli SDS sample loading buffer (Alfa Aesar). After boiling at 95° C. for 5 min, the samples were separated on precast 4-20% Criterion TGX gels (Bio-Rad). Probe-labeled proteins were analyzed by in-gel fluorescence using a ChemiDoc MP (Bio-Rad).
A covalent ligand screen of cysteine-reactive libraries competed against IA-rhodamine labeling of a recombinant exemplary deubiquitinase OTUB1 was carried out to identify small molecule binders to OTUB1 by gel-based activity-based protein profiling (ABPP). […] OTUB1 was then separated by SDS/PAGE and in-gel fluorescence was assessed and quantified.
Target sequence in this assay (Q96FW1 whole entry): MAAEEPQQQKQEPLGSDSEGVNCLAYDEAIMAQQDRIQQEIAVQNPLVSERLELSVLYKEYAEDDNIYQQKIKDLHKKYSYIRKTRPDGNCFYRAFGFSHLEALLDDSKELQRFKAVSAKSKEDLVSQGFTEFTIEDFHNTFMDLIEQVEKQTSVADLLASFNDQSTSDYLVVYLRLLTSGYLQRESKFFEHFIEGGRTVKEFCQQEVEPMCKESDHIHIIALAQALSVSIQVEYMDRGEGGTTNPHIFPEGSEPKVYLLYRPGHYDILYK

OTUB1 [2] = target: T1, OTUB1; assay: In vitro reconstituted OTUB1 deubiquitination activity assay (monoubiquitin release from di-ubiquitin); format: biochemical; parameters: dose or concentration left out as unconfirmed; conditions: in the presence of UBE2D1; OTUB1 pre-incubated with Compound 100 for 1 hr; Western blotting
Method: These studies were performed in the presence of OTUB1-stimulating Ubiquitin-conjugating enzyme E2 D1 (UBE2D1), an E2 ubiquitin ligase that engages in a complex with OTUB1 to stimulate OTUB1 activity.
Previously described methods were used to assess DUB Recruiters effects on OTUB1 activity. Recombinant OTUB1 (500 nM) was pre-incubated with DMSO or Compound 100 […] for 1 hr. To initiate assay pre-treated OTUB1 enzyme was mixed 1:1 with di-Ub reaction mix for final concentrations of 250 nM OTUB1, 1.5 μM di-Ub, 12.5 μM UBE2D1 and 5 mM DTT. The appearance of mono-Ub was monitored by Western blotting over time by removing a portion of the reaction mix and adding Laemmli's buffer to terminate the reaction. Blot shown is a representative gel from n=3 biologically independent experiments/group.
Target sequence in this assay (Q96FW1 whole entry): as above
Target sequence in this assay (P51668 whole entry partner): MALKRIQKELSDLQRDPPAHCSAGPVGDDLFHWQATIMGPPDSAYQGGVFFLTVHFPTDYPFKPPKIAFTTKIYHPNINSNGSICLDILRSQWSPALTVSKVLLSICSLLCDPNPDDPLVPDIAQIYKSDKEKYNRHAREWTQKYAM

OTUB1 [3] = target: T1, OTUB1; assay: LC-MS/MS analysis of tryptic peptides from OTUB1 covalently bound to DUB Recruiter; format: binding; conditions: tryptic peptides from OTUB1 covalently bound to compound
Target sequence in this assay (Q96FW1 whole entry): as the sequence (Q96FW1 whole entry) above

CFTR-OTUB1 complex = CFTR-OTUB1 complex (Homo sapiens, UniProt P13569+Q96FW1, DEL508-508); assay: Native mass spectrometry analysis of ternary complex formation; conditions: native MS; recombinant OTUB1 and DF508-harboring CFTR nucleotide-binding domain; 50 μM compound final
Chain of CFTR-OTUB1 complex (Q96FW1 whole entry, stated change not applied, the tested form may be a part): as the sequence (Q96FW1 whole entry) above
Chain of CFTR-OTUB1 complex (P13569 with tags, fused parts or gaps DEL508-508 limits assumed): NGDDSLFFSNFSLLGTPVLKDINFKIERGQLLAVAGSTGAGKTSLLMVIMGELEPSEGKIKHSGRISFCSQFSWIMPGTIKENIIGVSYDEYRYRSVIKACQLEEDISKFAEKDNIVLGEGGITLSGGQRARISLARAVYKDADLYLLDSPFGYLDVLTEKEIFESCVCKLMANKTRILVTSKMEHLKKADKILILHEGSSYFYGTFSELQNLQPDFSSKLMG
Method: FIGS. 15A-15D are images that confirm formation of a ternary complex between CFTR, an exemplary bifunctional compound (Compound 201), and OTUB1 in vitro using recombinant protein and native mass spectrometry (MS)-based approaches. FIGS. 15A-15C depict native mass spectra of CFTR-OTUB1 complex formation in the presence of DMSO (FIG. 15A), the DUB Recruiter Compound 100 alone (FIG. 15B), or the bifunctional compound Compound 201 (FIG. 15C).
Native mass spectrometry experiments were performed on a Thermo QE UHMR equipped with a nano-electrospray ionization source (Advion TriVersa NanoMate). Recombinant OTUB1 was first buffer exchanged into 150 mM ammonium acetate, 100 μM MgCl2, and 100 μM ATP at pH 6.7. 4 μM OTUB1 was then pre-incubated at room temperature for 24 hours with either DMSO, DUB Recruiter Compound 100 (100 μM), or DUBTAc Compound […] (100 μM). After 24 hours, 4 μM CFTR, in the same buffer, was added to the OTUB1 solution, for final concentrations of 2 μM of each protein with either DMSO or 50 μM compound. The solution was then allowed to incubate for 30 minutes prior to analysis on the mass spectrometer. Mass spectra were recorded in positive ion mode with a mass range of 1000-8000 m/z. Each spectrum was then deconvoluted and relevant peaks were integrated to determine % ternary complex formed. All experiments were performed in triplicate.

SMILES	inhibition of IA-rhodamine binding of OTUB1 (OTUB1 [1])	OTUB1 deubiquitination activity (monoubiquitin release from di-ubiquitin) (OTUB1 [2])	cysteine of OTUB1 targeted (covalent modification site) (OTUB1 [3])	modification of the catalytic C91 of OTUB1 (OTUB1 [3])	CFTR-OTUB1 complex formation (CFTR-OTUB1 complex)
C=CC(=O)N1CCN(c2ccc(C)o2)C(=O)C1 [Compound 100]	dose-responsive inhibition	does not inhibit	selectively targets C23	no detectable modification	not
C=CC(=O)N1CCN(c2ccc(CCC(=O)NCCCCCNC(=O)c3cccc(-c4nc(NC(=O)C5(c6ccc7c(c6)OC(F)(F)O7)CC5)ccc4C)c3)o2)C(=O)C1 [Compound 201, N-(5-(3-(5-(4-acryloyl-2-oxopiperazin-1-yl)furan-2-yl)propanamido)pentyl)-3-(6-(1-(2,2-difluorobenzo[d][1,3]dioxol-5-yl)cyclopropane-1-carboxamido)-3-methylpyridin-2-yl)benzamide]					significant CFTR-OTUB1 complex formation was observed
